Assays:
[1] = target: T1, glucokinase (GK), human enzyme (Homo sapiens, UniProt P35557); test: Glucokinase Activation Screening Assay (coupled enzyme assay with PK/LDH, NADH decline at 340 nm); type: biochemical; conditions: for EC50: 2 mM glucose; for fold activation (human): relative to control incubation with 2 mM glucose
T1 sequence (P35557 1-465): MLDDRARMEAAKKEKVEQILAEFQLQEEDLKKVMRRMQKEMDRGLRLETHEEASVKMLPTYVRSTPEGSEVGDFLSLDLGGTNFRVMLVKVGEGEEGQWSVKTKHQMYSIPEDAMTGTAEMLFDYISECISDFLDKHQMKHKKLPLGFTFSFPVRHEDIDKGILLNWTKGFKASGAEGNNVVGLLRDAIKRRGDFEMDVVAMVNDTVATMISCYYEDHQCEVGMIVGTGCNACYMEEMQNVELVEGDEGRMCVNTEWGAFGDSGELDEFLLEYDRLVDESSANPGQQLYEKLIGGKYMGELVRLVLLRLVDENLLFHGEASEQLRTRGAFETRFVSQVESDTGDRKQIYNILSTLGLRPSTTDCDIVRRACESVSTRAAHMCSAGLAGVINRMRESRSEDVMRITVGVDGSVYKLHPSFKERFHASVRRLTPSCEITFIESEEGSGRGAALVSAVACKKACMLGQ
Procedure: Glucokinase Activation Screening Assay
GK activity (human or rat enzyme) is measured by an coupled enzyme assay using pyruvate kinase (PK) and lactate dehydrogenase (LDH) as coupling enzymes. GK activity is calculated from the decline in NADH monitored photometrically with a microtiter plate (MTP) reader at 340 nm. For screening purposes, the GK assay is routinely run in a 384-MTP format, in a total volume of 33 μl/well. 10 μl of the ATP-regeneration solution (in HEPES-buffer*, pH 7.0, 6.73 U/ml pyruvate kinase, 6.8 U/ml lactate dehydrogenase) and 10 μl of the glucokinase-/glucose solution (15 μg/ml, 6.6 mM glucose in HEPES-buffer*, pH 7.0; the concentration of the glucose stock-solution was 660 mM in Millipore H2O) were mixed together with 3 μl of a 10% DMSO solution (in HEPES-buffer*, pH 7.0) containing 3.3-fold the amounts of the compounds to achieve final compound concentrations in the range between 1 nM to 30 μM (sometimes 300 μM) in the assay solution (s. below). The solutions were mixed for 5 sec, and after a centrifugation at 243×g for 5 min, the solutions were preincubated for 25 min at room temperature.
The reaction was started by the addition of 10 μl of the NADH-/ATP-solution (4.29 mM NADH, 4.95 mM ATP, in HEPES-buffer*). The MTP was shaken for 5 sec., and then, the absorbance at 340 nm was monitored continuously in a MTP-reader (TECAN Spectro fluor plus) for the next 27 min (with a MTP-cycling time of 199 sec.). The final concentrations of the various components were as follows: 49.5 mM Hepes, pH 7.0, 1.49 mM PEP, 1.3 mM NADH, 49.5 mM KCl, 4.96 mM MgCl2, 1.5 mM Mg-ATP, 1.98 mM DTT, 2.04 U/ml pyruvate kinase, 2.06 U/ml lactate-dehydrogenase, 0.91% DMSO, 0.15 μg/well glucokinase, and test compounds in the range between 1 nM and 300 μM.
The change in the optical density (ΔOD340 nm) in the presence of the compound was expressed relative to the ΔOD340 nm, ctrl of the control incubation (in the presence of 2 mM glucose and 0.91% DMSO), taking into account the optical density of the blank sample (incubation in the absence of 2 mM glucose). For the determination of the half maximal effective concentration (EC50), the %−Ctrl-values were plotted in a semi-logarithmic graph against the conc. of the compound of interest. The data points were fitted to a sigmoid curve function (f(x)=((%−Ctrlmax%−Ctrlmin)/(1−(EC50/x**^n(Hill)))+%−Ctrlmin)) by a non-linear regression analysis.
* Hepes-buffer (50 mM Hepes, pH 7.0, 5 mM MgCl2, 50 mM KCl, 1.5 mM PEP, 0.1% BSA). DTT was added to the Hepes-buffer from a 200× stock solution (in Millipore H2O) freshly each day. The final concentration of DTT in the Hepes-buffer is 2 mM.

Structure (SMILES): c1ccc(Oc2ccc(Nc3nccs3)nc2)cc1 [A8, (5-phenoxy-pyridine-2-yl)-thiazole-2-yl-amine]
- EC50 [1]: > 10 µM
- fold activation (human) [1]: D (fold activation: 1.2-5 μM = D)
- melting point: 161.4 to 162.4 °C

Structure (SMILES): CCCOc1ccc(Nc2ccn(C)n2)nc1 [A23, (1-methyl-1H-pyrazole-3-yl)-(5-propoxy-pyridine-2-yl)-amine]
- fold activation (human) [1]: D (fold activation: 1.2-5 μM = D)

Structure (SMILES): Cc1csc(Nc2ccc(Br)cn2)n1 [A1, (5-bromo-pyridine-2-yl)-(4-methyl-thiazole-2-yl)-amine]
- fold activation (human) [1]: D (fold activation: 1.2-5 μM = D)
- melting point: 241.5 to 242.6 °C

Structure (SMILES): c1ccc(Sc2ccc(Nc3nccs3)nc2)cc1 [A12, (5-phenylsulfanyl-pyridine-2-yl)-thiazole-2-yl-amine]
- EC50 [1]: > 10 µM
- fold activation (human) [1]: D (fold activation: 1.2-5 μM = D)

Structure (SMILES): Brc1ccc(Nc2nc(Cn3ccnc3)cs2)nc1 [A3, (5-bromo-pyridine-2-yl)-(4-imidazole-1-ylmethyl-thiazole-2-yl)-amine]
- EC50 [1]: 1 to 10 µM
- fold activation (human) [1]: D (fold activation: 1.2-5 μM = D)

Structure (SMILES): OCc1csc(Nc2ccc(Oc3ccccc3)cn2)n1 [A10, [2-(5-phenoxy-pyridine-2-ylamino)-thiazole-4-yl]-methanol]
- EC50 [1]: 1 to 10 µM
- fold activation (human) [1]: E (5-10 μM = E)
- melting point: 130 to 131 °C

Structure (SMILES): COCCOc1cc(Oc2ccccc2)cnc1Nc1nccs1 [A20, [3-(2-methoxy-ethoxy)-5-phenoxy-pyridine-2-yl]-thiazole-2-yl-amine]
- EC50 [1]: 1 to 10 µM
- fold activation (human) [1]: E (5-10 μM = E)
- melting point: 140.6 to 140.9 °C

Structure (SMILES): CS(=O)(=O)c1ccc(Oc2ccc(Nc3ccccn3)nc2)cc1 [A94]
- fold activation (human) [1]: E (5-10 μM = E)

Structure (SMILES): c1ccc(COc2ccc(Nc3nccs3)nc2)cc1 [A30, (5-benzyloxy-pyridine-2-yl)-thiazole-2-yl-amine]
- fold activation (human) [1]: D (fold activation: 1.2-5 μM = D)

Structure (SMILES): CC(=O)OCc1csc(Nc2ccc(Oc3ccccc3)cn2)n1 [A9, acetic acid 2-(5-phenoxy-pyridine-2-ylamino)-thiazole-4-ylmethyl ester]
- EC50 [1]: > 10 µM
- fold activation (human) [1]: D (fold activation: 1.2-5 μM = D)
- melting point: 158.5 to 160.5 °C

Structure (SMILES): [O-][S+](c1ccccc1)c1ccc(Nc2nccs2)nc1 (centres unmarked) [A13, (5-phenylsulfinyl-pyridine-2-yl)-thiazole-2-yl-amine]
- fold activation (human) [1]: D (fold activation: 1.2-5 μM = D)

Structure (SMILES): COCC(C)Oc1cc(Oc2ccccc2)cnc1Nc1nccs1 (centres unmarked) [A28, [3-(2-Methoxy-1-methyl-ethoxy)-5-phenoxy-pyridine-2-yl]-thiazole-2-yl-amine]
- EC50 [1]: 1 to 10 µM
- fold activation (human) [1]: E (5-10 μM = E)

Structure (SMILES): BrCc1csc(Nc2ccc(Br)cn2)n1 [A2, (4-bromomethyl-thiazole-2-yl)-(5-bromo-pyridine-2-yl)-amine]
- EC50 [1]: 1 to 10 µM
- fold activation (human) [1]: D (fold activation: 1.2-5 μM = D)

Structure (SMILES): O=S(=O)(c1ccccc1)c1ccc(Nc2nccs2)nc1 [A14, (5-phenylsulfonyl-pyridine-2-yl)-thiazole-2-yl-amine]
- EC50 [1]: > 10 µM
- fold activation (human) [1]: D (fold activation: 1.2-5 μM = D)

Structure (SMILES): COCCOc1cc(Oc2ccccc2)cnc1Nc1ccn(C)n1 [A97]
- fold activation (human) [1]: E (5-10 μM = E)

Structure (SMILES): COCCOc1cc(Oc2cccnc2)cnc1Nc1nccs1 [A31, [3-(2-methoxy-ethoxy)-5-(pyridine-3-yloxy)-pyridine-2-yl]-thiazole-2-yl-amine]
- fold activation (human) [1]: E (5-10 μM = E)

Structure (SMILES): COCCOc1cc(Oc2ccccc2)cnc1Nc1ccccn1 [A96]
- fold activation (human) [1]: D (fold activation: 1.2-5 μM = D)

Structure (SMILES): COCCOc1cc(Oc2ccc(S(C)(=O)=O)cc2)cnc1Nc1nccs1 [A32, [5-(4-methanesulfonyl-phenoxy)-3-(2-methoxy-ethoxy)pyridine-2-yl]-thiazole-2-yl-amine]
- EC50 [1]: 1 to 10 µM
- fold activation (human) [1]: E (5-10 μM = E)

Structure (SMILES): CCOC(=O)c1csc(Nc2ccc(Br)cn2)n1 [A4, 2-(5-bromo-pyridine-2-ylamino)-thiazole-4-carboxylic acid ethyl ester]
- fold activation (human) [1]: D (fold activation: 1.2-5 μM = D)
- melting point: 299.8 to 300.8 °C

Structure (SMILES): COCCOc1cc(Oc2ccccc2)cnc1Nc1cnccn1 [A95]
- fold activation (human) [1]: D (fold activation: 1.2-5 μM = D)

Structure (SMILES): NCCSCc1csc(Nc2ccc(Br)cn2)n1 [A7, [4-(2-amino-ethylsulfanylmethyl)-thiazole-2-yl]-(5-bromopyridine-2-yl)-amine]
- EC50 [1]: > 10 µM
- fold activation (human) [1]: D (fold activation: 1.2-5 μM = D)

Structure (SMILES): c1ccc(Oc2cnc(Nc3nccs3)c(OCC3CCCC3)c2)cc1 [A29, (3-cyclopentylmethoxy-5-phenoxy-pyridine-2-yl)-thiazole-2-yl-amine]
- EC50 [1]: 0.01 to 1 µM
- fold activation (human) [1]: D (fold activation: 1.2-5 μM = D)

Structure (SMILES): OCc1csc(Nc2ccc(Br)cn2)n1 [A6, [2-(5-bromo-pyridine-2-ylamino)-thiazole-4-yl]-methanol]
- fold activation (human) [1]: D (fold activation: 1.2-5 μM = D)
- melting point: 207 to 209 °C

Structure (SMILES): CC(=O)OCc1csc(Nc2ccc(Br)cn2)n1 [A5, acetic acid 2-(5-bromo-pyridine-2-ylamino)-thiazole-4-ylmethyl ester]
- EC50 [1]: 1 to 10 µM
- fold activation (human) [1]: D (fold activation: 1.2-5 μM = D)
- melting point: 200.9 to 201.6 °C

Structure (SMILES): c1ccc(Oc2cnc(Nc3nccs3)c(OC3CCCC3)c2)cc1 [A21, (3-cyclopentyloxy-5-phenoxy-pyridine-2-yl)-thiazole-2-yl-amine]
- EC50 [1]: 0.01 to 1 µM
- fold activation (human) [1]: E (5-10 μM = E)

Reference: patent US8420642B2, “Pyridine derivatives useful as glucokinase activators” (Merck Patent GmbH, priority 2007, dated 2013)
